{"source": "paper PMC7211195", "about": "(Investigational New Drugs, 2019)", "experiment": "Lapatinib pharmacokinetics and uptake in rat brain tissue (BT);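 for BT corr (BT homogenate corrected), single rat: brain concentration corrected for residual brain blood by the Fridén method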;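 for BT corr (BT homogenate), single rat: brain concentration corrected for residual brain blood by the Fridén method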", "assay_type": "in vivo, rats", "description": "This study was conducted on rats, which are a promising model to predict P-gp-based drug-drug interactions at the human BBB [15]. The animals were allowed to acclimate for one week before the beginning of the experiments. Adult male Wistar-strain rats (weight 470–525 g) were used in the study. The animals were maintained under standard breeding conditions with a 12/12 h light-dark cycle (lights on at 6.00 a.m., lights off at 6.00 p.m.) at constant room temperature (23 ± 2 °C), relative humidity (55 ± 10%) and ad libitum access to food and water. The experimental protocol for this study was reviewed and approved by the Local Ethics Committee. To obtain consistent data, the study was based on the required minimum number of animals and observation time. […] Three rats were used at each time point (n = 3). In total, the research was conducted on 66 animals (n = 33 in the experimental group and n = 33 in the control group).\nElacridar was freshly dissolved in a vehicle at an initial concentration of 20 mg/mL. […] A volume of 80 μL of blood was collected from each rat by cutting off a piece of its tail. The blood samples were collected into heparinized test tubes at the following time points: […], and they were immediately centrifuged at 2880 g for 10 min at 4 °C. The anaesthetized rats (anaesthetized by intramuscular administration of 50 mg/kg ketamine and 10 mg/kg xylazine) were prepared for cisterna magna puncture. The hair over the puncture was removed and the skin was disinfected with alcohol. The animals were placed in a recumbent position with an elevated rear part of the body. The animals’ heads were slightly flexed and immobilized with the operator’s left hand. The space between the occiput rostrally and the atlas (C1) of the spinal column caudally was gently palpated with the left thumb. A 0.7 × 20 G needle with polyethylene tubing (Terumo Poland, Warsaw, Poland) was gently inserted at an approximate angle of 80–90° through the skin with the operator’s right hand into the midsagittal region. The moment that dura mater perforation was perceptible, a small amount of CSF was found in the needle tubing. To sample additional CSF, a 1 mL insulin syringe (Becton Dickinson, Warsaw, Poland) was used to collect 80–120 μL of CSF by very gentle aspiration. Only clear CSF was collected for further analysis. […] The animals’ brains were immediately dissected, washed in 0.9% NaCl and divided along the longitudinal axis. One of the brain hemispheres was again rinsed three times with 5 mL of 0.9% NaCl, weighed and homogenized with 0.9% NaCl (4 mL per 1 g of BT) in an Ultra-Turrax homogenizer (Witko, Łódź, Poland). The homogenate was then centrifuged at 4500 g for 10 min. All samples of the rat BP, CSF, and BT homogenate supernatant were stored at −80 °C until analysis.\nThe chromatographic analysis was conducted using a 1260 Infinity system (Agilent Technologies, Santa Clara, USA) equipped with a Kinetex® C18 column (50 × 4.6 mm, 2.6 μm, Phenomenex, Torrance, USA), which was maintained at 35 °C. The mobile phase consisted of 0.1% formic acid (v/v) in water with 5 mM ammonium formate (solvent A) and acetonitrile with 10% phase A (v/v, solvent B). The analyte and internal standard (IS, erlotinib) were eluted using a gradient run of 10 min as follows: 95% A at 0–2 min; 95%–5% A at 2–4 min; 5% A at 4–5 min; 5%–95% A at 5–6 min; 95% A at 6–10 min. The flow rate and injection volume were set at 0.7 mL/min and 10 μL, respectively. The needle was washed for 30 s in a mixture of acetonitrile, methanol, isopropanol, water, and formic acid (50:20:15:15:0.25, v/v/v/v/v).", "key": {"[1]": {"details": "male, Wistar, rat, brain tissue homogenate, corrected for residual blood, po, 100 mg/kg, lapatinib p.o. 100 mg/kg alone, read-out: BT corr (BT homogenate corrected), S"}, "[2]": {"details": "male, Wistar, rat, brain tissue homogenate, corrected for residual blood, po, 100 mg/kg, lapatinib p.o. 100 mg/kg alone, read-out: BT corr (BT homogenate corrected), single rat"}, "[3]": {"details": "male, Wistar, rat, brain tissue homogenate, oral, lapatinib 100 mg/kg + elacridar, read-out: BT corr (BT homogenate), S"}, "[4]": {"details": "male, Wistar, rat, brain tissue homogenate, oral, lapatinib 100 mg/kg + elacridar, read-out: BT corr (BT homogenate), single rat"}}, "note": "“And” between values parts separate entries of the source, which are not always exact repeats. Identical values can stand only once. Like-named read-outs stand apart in the source and are kept apart here.", "data": [{"smiles": "CS(=O)(=O)CCNCc1ccc(-c2ccc3ncnc(Nc4ccc(OCc5cccc(F)c5)c(Cl)c4)c3c2)o1", "note": "[lapatinib, N-{3-Chloro-4-[(3-fluorobenzyl)oxy]phenyl}-6-[5-({[2-(methylsulfonyl)ethyl]amino}methyl)-2-furyl]-4-quinazolinamine]", "values": [{"measurement": "BT corr (BT homogenate corrected), single rat", "setting": "lapatinib p.o. 100 mg/kg alone, 1 h, 100 mg/kg", "value": 62.82, "unit": "ng/mL"}, {"measurement": "BT corr (BT homogenate corrected), single rat", "setting": "lapatinib p.o. 100 mg/kg alone, 1 h, listed as Lapatinib, 100 mg/kg", "value": 62.82, "unit": "ng/mL"}, {"measurement": "BT corr (BT homogenate corrected), single rat", "setting": "lapatinib p.o. 100 mg/kg alone, 4 h, 100 mg/kg", "value": 135.24, "unit": "ng/mL"}, {"measurement": "BT corr (BT homogenate corrected), single rat", "setting": "lapatinib p.o. 100 mg/kg alone, 4 h, listed as Lapatinib, 100 mg/kg", "value": 135.24, "unit": "ng/mL"}, {"measurement": "BT corr (BT homogenate corrected), single rat", "setting": "lapatinib p.o. 100 mg/kg alone, 6 h, 100 mg/kg", "value": "116.18 ng/mL and 47.54 ng/mL"}, {"measurement": "BT corr (BT homogenate corrected), single rat", "setting": "lapatinib p.o. 100 mg/kg alone, 6 h, listed as Lapatinib, 100 mg/kg", "value": "116.18 ng/mL and 47.54 ng/mL"}, {"measurement": "BT corr (BT homogenate corrected), single rat", "setting": "lapatinib p.o. 100 mg/kg alone, 8 h, 100 mg/kg", "value": 44.94, "unit": "ng/mL"}, {"measurement": "BT corr (BT homogenate corrected), single rat", "setting": "lapatinib p.o. 100 mg/kg alone, 8 h, listed as Lapatinib, 100 mg/kg", "value": 44.94, "unit": "ng/mL"}, {"measurement": "BT corr (BT homogenate corrected), single rat", "setting": "lapatinib p.o. 100 mg/kg alone, 12 h, 100 mg/kg", "value": 10.91, "unit": "ng/mL"}, {"measurement": "BT corr (BT homogenate corrected), single rat", "setting": "lapatinib p.o. 100 mg/kg alone, 12 h, listed as Lapatinib, 100 mg/kg", "value": 10.91, "unit": "ng/mL"}, {"measurement": "Kp", "setting": "male, Wistar, rat, brain tissue (homogenate supernatant), po, 100 mg/kg, read-out: Kp (tissue-to-plasma partition coefficient, AUC0-∞-tissue/AUC0-∞-plasma)", "value": 0.036}, {"measurement": "concentration at 4 h", "setting": "male, Wistar, rat, brain tissue homogenate, corrected for residual blood, oral, lapatinib 100 mg/kg + elacridar, 4 h, read-out: BT corr (BT homogenate), single rat", "value": 78.2, "unit": "ng/mL"}, {"measurement": "concentration at 6 h", "setting": "male, Wistar, rat, brain tissue homogenate, corrected for residual blood, oral, lapatinib 100 mg/kg + elacridar, 6 h, read-out: BT corr (BT homogenate), single rat", "value": 87.3, "unit": "ng/mL"}, {"measurement": "concentration at 8 h", "setting": "male, Wistar, rat, brain tissue homogenate, corrected for residual blood, oral, lapatinib 100 mg/kg + elacridar, 8 h, read-out: BT corr (BT homogenate), single rat", "value": 91.5, "unit": "ng/mL"}, {"measurement": "concentration at 12 h", "setting": "male, Wistar, rat, brain tissue homogenate, corrected for residual blood, oral, lapatinib 100 mg/kg + elacridar, 12 h, read-out: BT corr (BT homogenate), single rat", "value": 63.6, "unit": "ng/mL"}, {"measurement": "concentration at 24 h", "setting": "male, Wistar, rat, brain tissue homogenate, corrected for residual blood, oral, lapatinib 100 mg/kg + elacridar, 24 h, read-out: BT corr (BT homogenate), single rat", "value": 52.7, "unit": "ng/mL"}, {"measurement": "concentration at 0.25 h", "setting": "[1]", "value": 27.9, "unit": "ng/mL"}, {"measurement": "concentration at 0.25 h", "setting": "[2]", "value": 22.5, "unit": "ng/mL"}, {"measurement": "concentration at 0.5 h", "setting": "[1]", "value": 31.5, "unit": "ng/mL"}, {"measurement": "concentration at 0.5 h", "setting": "[2]", "value": 24, "unit": "ng/mL"}, {"measurement": "concentration at 1 h", "setting": "male, Wistar, rat, brain tissue homogenate, corrected for residual blood, po, 100 mg/kg, lapatinib p.o. 100 mg/kg alone, 1 h, read-out: BT corr (BT homogenate corrected), S", "value": 55.5, "unit": "ng/mL"}, {"measurement": "concentration at 1 h", "setting": "male, Wistar, rat, brain tissue homogenate, corrected for residual blood, po, 100 mg/kg, lapatinib p.o. 100 mg/kg alone, 1 h, read-out: BT corr (BT homogenate corrected), single rat", "value": 48.1, "unit": "ng/mL"}, {"measurement": "concentration at 2 h", "setting": "[1]", "value": 41.4, "unit": "ng/mL"}, {"measurement": "concentration at 2 h", "setting": "[2]", "value": 30.1, "unit": "ng/mL"}, {"measurement": "concentration at 3 h", "setting": "[1]", "value": 111, "unit": "ng/mL"}, {"measurement": "concentration at 3 h", "setting": "[2]", "value": 139, "unit": "ng/mL"}, {"measurement": "concentration at 4 h", "setting": "male, Wistar, rat, brain tissue homogenate, corrected for residual blood, po, 100 mg/kg, lapatinib p.o. 100 mg/kg alone, 4 h, read-out: BT corr (BT homogenate corrected), S", "value": 115, "unit": "ng/mL"}, {"measurement": "concentration at 4 h", "setting": "male, Wistar, rat, brain tissue homogenate, corrected for residual blood, po, 100 mg/kg, lapatinib p.o. 100 mg/kg alone, 4 h, read-out: BT corr (BT homogenate corrected), single rat", "value": 94.2, "unit": "ng/mL"}, {"measurement": "concentration at 6 h", "setting": "male, Wistar, rat, brain tissue homogenate, corrected for residual blood, po, 100 mg/kg, lapatinib p.o. 100 mg/kg alone, 6 h, read-out: BT corr (BT homogenate corrected), S", "value": 81.9, "unit": "ng/mL"}, {"measurement": "concentration at 8 h", "setting": "male, Wistar, rat, brain tissue homogenate, corrected for residual blood, po, 100 mg/kg, lapatinib p.o. 100 mg/kg alone, 8 h, read-out: BT corr (BT homogenate corrected), S", "value": 66.2, "unit": "ng/mL"}, {"measurement": "concentration at 8 h", "setting": "male, Wistar, rat, brain tissue homogenate, corrected for residual blood, po, 100 mg/kg, lapatinib p.o. 100 mg/kg alone, 8 h, read-out: BT corr (BT homogenate corrected), single rat", "value": 87.5, "unit": "ng/mL"}, {"measurement": "concentration at 12 h", "setting": "male, Wistar, rat, brain tissue homogenate, corrected for residual blood, po, 100 mg/kg, lapatinib p.o. 100 mg/kg alone, 12 h, read-out: BT corr (BT homogenate corrected), S", "value": 44.5, "unit": "ng/mL"}, {"measurement": "concentration at 0.25 h", "setting": "[3]", "value": 33.1, "unit": "ng/mL"}, {"measurement": "concentration at 0.25 h", "setting": "[4]", "value": 30.7, "unit": "ng/mL"}, {"measurement": "concentration at 0.5 h", "setting": "[3]", "value": 43.6, "unit": "ng/mL"}, {"measurement": "concentration at 0.5 h", "setting": "[4]", "value": 45.2, "unit": "ng/mL"}, {"measurement": "concentration at 1 h", "setting": "male, Wistar, rat, brain tissue homogenate, oral, lapatinib 100 mg/kg + elacridar, 1 h, read-out: BT corr (BT homogenate), S", "value": 79.1, "unit": "ng/mL"}, {"measurement": "concentration at 1 h", "setting": "male, Wistar, rat, brain tissue homogenate, oral, lapatinib 100 mg/kg + elacridar, 1 h, read-out: BT corr (BT homogenate), single rat", "value": 74.9, "unit": "ng/mL"}]}]}
